Results: US11642362B2, “Methods of inhibiting cell proliferation and METTL8 activity” (NATIONAL UNIVERSITY OF SINGAPORE, priority 2017, dated 2023)

Assays:
Mettl8 protein = Mettl8 protein level after cisplatin treatment (SDS-PAGE, immunoblotting); format: cell-based, human; conditions: 293T, HCT116 and HepG2 cells; cisplatin 0, 10, 30, 60, 100, 150 μM for 24 h
Procedure: To further study modulation of Mettl8 protein, 293T, HCT116, and HepG2 cells were treated with different dosage of cisplatin (0, 10, 30, 60, 100, and 150 μM) for 24 h before cell lysates were collected and subjected to SDS-PAGE followed by immunoblotting with Mettl8 and Hsp90 antibodies.

Mettl8 [1] = assay: Mettl8 expression after treatment with interstrand crosslinking agents; format: cell-based
[2] = tested on: HCT116 control and Mettl8 knockout cells; assay: Cisplatin sensitivity colony survival assay; format: cell-based, human; conditions: Mettl8 knockout versus control HCT116 cells; cisplatin 2 h, grown a week
Procedure: (§1) To further study the relationship between cisplatin and Mettl8, MTS and colony survival assays were performed. In the MTS assay, HCT116 wildtype and Mettl8 knockout cells were seed in 96 well at 1000 cell/well density and treated with different dose of cisplatin. In the colony survival assay, 500 cells per well of HCT116 control and Mettl8 knockout cells were seeded into 6-well plates in triplicate and subjected to different dosage of cisplatin treatment for 2 h.
Cells were grown in fresh media for a week and the survival cell colonies were fixed and stained with crystal violet. Colonies with more than 50 cells were counted. The result was presented in ±SEM of percentage of colonies survived compared to untreated samples. […] This effect is dependent on p53 for cisplatin induced apoptosis (data not shown). This difference in sensitivity could be exploited in clinical context that patients with functional p53 and low Mettl8 tumor may benefit more from cisplatin treatment instead of radiotherapy.

[3] = tested on: HCT116 wildtype and Mettl8 knockout cells; assay: Cisplatin sensitivity MTS assay; format: cell-based, human; conditions: Mettl8 knockout versus wildtype HCT116 cells
Procedure: as §1

Mettl8 [4] = assay: STAT3 shRNA knockdown in E14 cells, Mettl8 mRNA and protein; format: cell-based, mouse; conditions: Luc shRNA as control
Procedure: Luc shRNA was used as control. Data in FIG. 5K are shown as the mean±SD from three independent experiments. The value of each band in FIG. 5L was calculated from three independent replicates and indicates the relative expression level after normalizing to the loading control Actin.

HCT116 cells [5] = assay: Cell growth (colony formation) assay, crystal violet; format: cell-based, human; conditions: HCT116, 500 cells/well, 7 days, versus scramble shRNA / empty vector
Procedure: (§2) In the soft agar colony assay, HCT116 cells with Mettl8 wt or ΔSAM were seeded at 500 cells/well in 6-well plate in triplicate and after 2-week colonies grown up in soft agar was shown. Colonies with more than 50 cells were counted with Quantity One software. […] 7 days later, cells were fixed and stained with crystal violet. The images of plates were collected with ImageLab software.

Mettl8 [6] = assay: Western blot of Mettl8 protein in E14 cells treated with STAT3 inhibitors; format: cell-based, mouse
Procedure: Total RNAs were extracted from E14 cells treated with STA-21 and STATTIC for 6 hr and analyzed by real-time PCR. […] The data are shown as the mean±SD from three independent experiments (*p<0.05). The cell lysates from treated E14 cells were also analyzed by Western blot. Consistent with the mRNA expression, the protein levels of Mettl8 were reduced with presence of STA-21 and STATTIC (FIG. 5J). The value of each band was calculated from three independent replicates and indicates the relative expression level after normalizing to the loading control Actin.

Mettl8 mRNA = assay: Real-time PCR of Mettl8 mRNA in ESCs / E14 cells treated with STAT3 inhibitors; format: cell-based, mouse; conditions: for Mettl8 mRNA expression (real-time PCR): E14 cells treated for 6 hr; for Mettl8 mRNA (real-time PCR): ESCs treated with 10 μM STAT3 inhibitor for 1 hr
Procedure: To investigated how STAT3 crosstalk with other potential pathways in pluripotency of embryonic stem cells (“ESCs”), inventors tried to identify factors that were regulated by STAT3 using mouse ESCs treated with STAT3 inhibitors STA-21 and STATTIC. Real-time PCR was performed to screen for changes when embryonic stem cells (ESCs) were treated with STAT3 inhibitor 10 μM STA-21 and STATTIC for 1 hr. RNAs were extracted with TRIZOL followed by reverse transcription. Total RNAs were extracted from E14 cells treated with STA-21 and STATTIC for 6 hr and analyzed by real-time PCR. […] The data are shown as the mean±SD from three independent experiments (*p<0.05). The cell lysates from treated E14 cells were also analyzed by Western blot. Consistent with the mRNA expression, the protein levels of Mettl8 were reduced with presence of STA-21 and STATTIC (FIG. 5J). The value of each band was calculated from three independent replicates and indicates the relative expression level after normalizing to the loading control Actin.

Mettl8 [7] = assay: shRNA knockdown of Mettl8 in HCT116 (lentivirus, Western blotting); format: cell-based, human; conditions: HCT116, lentiviral pLKO1 shRNA, 72 h
Procedure: To study the functions of Mettl8, hairpin shRNA was ordered and cloned into pLKO1 vector by AgeI/EcoRI, with the following sequence:
The hairpin sequences in the shRNA were underlined. […]. Supernatant was harvested after 48 hours and cleared by filtration. Then viral solution was added to fresh HCT116 culture in the presence of 6 ug/ml polybrene. After 72 h, the cells were lysed and equal amount of lysate was resolved on SDS-PAGE for knock down efficiency by Western blotting with anti-Mettl8 and actin antibodies as indicated in FIG. 2.

ATM = assay: Camptothecin treatment of HCT116 WT and METTL8 KO cells, ATM activation immunoblot; format: cell-based, human; conditions: 10 μM camptothecin 0-24 hr; Mettl8 knockout HCT116 cells compared with WT
Procedure: HCT116 WT and METTL8 KO cells were treated with 10 μM camptothecin for 0 h, 1 hr, 3 hr, 6 hr, 16 hr, and 24 hr. Equal amount of lysates were resolved on SDS-PAGE followed by immunoblotting with antibodies.

ATM, KAP1, Chk2, p53 = assay: ATM inhibitor pre-treatment of Mettl8 mutant or knockout cells before irradiation (immunoblot); format: cell-based; conditions: Mettl8 mutant or knockout cells pre-treated with ATM inhibitor before irradiation
pS/TQ motif on Mettl8 = assay: Flag IP and pS/TQ immunoblot of Flag-Mettl8 in HCT116 stable cells; format: cell-based, human
Description: Since both ATM and p53 are tumor suppressors in response to DNA damage, inventors further explored the function of Mettl8 in DNA damage. […] Equal amount of lysates were subject to Flag immunoprecipitation (“IP”) with M-2 beads and washed extensively before being resolved on SDS-PAGE and followed by immunoblotting with an phosphorylation-specific antibody against pS/TQ motif (Cell signaling) and a Flag antibodu. The lysates were immunoblotted by anti-Flag, Actin, ATM pS1981, Chk2 pT68 and p53 p515 antibodies.
In this experiment, equal amount of lysate was immunopurified with M2 beads and probed for pS/TQ antibody, the lysate was checked for antibodies indicated in FIG. 7C.
Equal amounts of lysate were immunopurified with M2 beads and probed for pS/TQ antibody, the lysate was checked for antibodies indicated.

HCT116 stable cells = assay: Cell cycle profiling by FACS of HCT116 stable cells; format: cell-based, human; conditions: un-stressed conditions, versus empty vector and wild-type Mettl8
Description: (§3) As ATM is essential for cell checkpoint, the cell cycle profiles were studies in this experiment. The plasmid containing the cDNA of human Mettle8 SAM deletion mutant was constructed by PCR based mutagenesis method to delete the specific nucleotide sequence in the SAM domain as shown in FIG. 7A. After the plasmid was transfected into HCT116 wildtype cells, stable colonies of cell containing the plasmid were selected, which were called Mettl8 ΔSAM cells. The Mettle8 ΔSAM variant cDNA was also transduced into human skin fibroblast as shown in FIG. 7N by a lentivirus based method. These HCT116 stable cells were examined in cell cycle analysis (FIG. 9A) and soft agar colony assay (FIG. 9B).
In addition, HCT116 stable cells with Mettl8 variant were fixed with 70% ethanol and stained with pI followed by cell cycle profiling on FACS and data were analysed with FlowJo software.

HCT116 cells [8] = assay: Soft agar colony assay; format: cell-based, human; conditions: HCT116 stable cells, 500 cells/well, 2 weeks, compared to empty vector
Procedure: as §2

[9] = 3H-SAM binding assay with GST-Mettl8 proteins on beads, scintillation counting; design: species or system human; conditions: recombinant purified GST-Mettl8 wt and SAM mutant
Procedure: To test the ability of Mettl8 to bind SAM, equal amounts of GST, GST-Mettl8 WT and mutant proteins were conjugated on Glutathione sepharose 4B beads and incubated with ^3H-SAM for 30 min at 30° C. with empty beads control. After extensive washing, the beads were transferred to scintillation tubes and measured on liquid scintillation counter in triplicate.
as §3

N.N.[Cl][Pt][Cl] [cisplatin]
Mettl8 protein level (Mettl8 protein): dramatically reduced | Mettl8 expression at transcriptional level (Mettl8 [1]): downregulated at transcriptional level | sensitivity to cisplatin treatment (colony survival assay) [2]: more sensitive | sensitivity to cisplatin treatment (MTS assay) [3]: more sensitive

STAT3 shRNA: shRNA sequence TTTGTGCTTAGGATGGCCC, SEQ ID No: 7; full sequence SEQ ID No: 8 (GATCCCCGGGCCATCCTAAGCACAAATTCAAGAGATTTGTGCTTAGGATGGCCCTTTTTA)
Mettl8 mRNA (Mettl8 [4]): downregulation | Mettl8 protein (Mettl8 [4]): downregulation

Mettl8 shRNA2: shRNA sequence GCGAGAGAATCATCATGGGAT, SEQ ID No: 3
colony formation (HCT116 cells [5]): significantly reduced the colony formation

CC1CC(=O)c2c(ccc3c2C(=O)c2cccc(O)c2C3=O)C1 (stereo not shown) [STA-21, 8-hydroxy-3-methyl-3,4-dihydrotetraphene-1,7,12(2H)-trione]
Mettl8 protein levels (Western blot) (Mettl8 [6]): reduced | Mettl8 mRNA expression (real-time PCR) (Mettl8 mRNA): inhibited | Mettl8 mRNA (real-time PCR) (Mettl8 mRNA): downregulated

CO[C@@]12[C@H](COC(N)=O)C3=C(C(=O)C(C)=C(N)C3=O)N1C[C@@H]1N[C@@H]12 [mitomycin C]
Mettl8 expression at transcriptional level (Mettl8 [1]): downregulated at transcriptional level

shRNA: hairpin shRNA against Mettl8 cloned into pLKO1, SEQ ID NO: 15; hairpin matches M8 shRNA1 GTTGAGGGAATTTCCTGAAAT (CCGGGTTGAGGGAATTTCCTGAAATCTCGAGATTTCAGGAAATTCCCTCAACTTTTTTG)
Mettl8 expression (knock down efficiency, Western blotting) (Mettl8 [7]): can knock down the expression of Mettl8

CC[C@@]1(O)C(=O)OCc2c1cc1n(c2=O)Cc2cc3ccccc3nc2-1 [camptothecin]
ATM activation (ATM): caused hyperactivation of ATM

O=c1cc(-c2cccc3c2Sc2ccccc2S3)oc(N2CCOCC2)c1 [Ku55933]
hyper activation of ATM, KAP1, Chk2, p53 by irradiation (ATM, KAP1, Chk2, p53): either reverted or eliminated the hyper activation | prevention of Mettl8 phosphorylation by IR (pS/TQ motif on Mettl8; 1 μM Ku55933 pretreatment 1 hour, 10 Gy, harvested 1 h later, doses 0.1, 1, 5 μM tested): sufficient to prevent the phosphorylation of Mettl8 | irradiation-induced phosphorylation at the pS/TQ motif of Flag-Mettl8 (pS/TQ motif on Mettl8; HCT116 Flag-Mettl8 cells pretreated 1 hour with inhibitor (AZD7762 0.5 μM), then 10 Gy): reduced the phosphorylation

O=[N+]([O-])c1ccc2c(c1)S(=O)(=O)C=C2 [STATTIC, 6-Nitrobenzo[b]thiophene 1,1-dioxide]
Mettl8 protein levels (Western blot) (Mettl8 [6]): reduced | Mettl8 mRNA expression (real-time PCR) (Mettl8 mRNA): inhibited | Mettl8 mRNA (real-time PCR) (Mettl8 mRNA): downregulated

B1: Mettl8 ASAM variant: human Mettl8 variant with SAM domain deletion (aa 200-208), SEQ ID No. 18; competes with endogenous Mettl8 (protein)
chain: MNMIWRNSISCLRLGKVPHRYQSGYHPVAPLGSRILTDPAKVFEHNMWDHMQWSKEEEAAARKKVKENSAVRVLLEEQVKYEREASKYWDTFYKIHKNKFFKDRNWLLREFPEILPVDQKPEEKARESSWDHVKTSATNRFSRMHCPTVPDEKNHYEKSSGSSEGQSKTESDFSNLDSEKHKKGPMETGLFPGSNATFRNSVFPILNTLENSPESFLYCCDFASGAVELVKSHSSYRATQCFAFVHDVCDDGLPYPFPDGILDVILLVFVLSSIHPDRMQGVVNRLSKLLKPGGMLLFRDYGRYDKTQLRFKKGHCLSENFYVRGDGTRAYFFTKGEVHSMFCKASLDEKQNLVDRRLQVNRKKQVKMHRVWIQGKFQKPLHQTQNSSNMVSTLLSQD
cell cycle profile (HCT116 stable cells): more accumulation of G2/M populations | soft agar colony numbers (HCT116 cells [8]): much reduced colony numbers | binding of SAM [9]: lost the ability to bind the SAM donor molecule
